These results are taken from patent US20150344485A1, “BICYCLIC PYRIMIDONE COMPOUNDS AS INHIBITORS OF LP-PLA2” (GLAXOSMITHKLINE INTELLECTUAL PROPERTY DEVELOPMENT LIMITED, priority 2013, published 2015).

The target in this assay is T1, Lp-PLA2 in human plasma (Homo sapiens, UniProt Q13093).
T1 construct: from tissue; host or cells: pooled human plasma
T1 sequence (Q13093 22-441): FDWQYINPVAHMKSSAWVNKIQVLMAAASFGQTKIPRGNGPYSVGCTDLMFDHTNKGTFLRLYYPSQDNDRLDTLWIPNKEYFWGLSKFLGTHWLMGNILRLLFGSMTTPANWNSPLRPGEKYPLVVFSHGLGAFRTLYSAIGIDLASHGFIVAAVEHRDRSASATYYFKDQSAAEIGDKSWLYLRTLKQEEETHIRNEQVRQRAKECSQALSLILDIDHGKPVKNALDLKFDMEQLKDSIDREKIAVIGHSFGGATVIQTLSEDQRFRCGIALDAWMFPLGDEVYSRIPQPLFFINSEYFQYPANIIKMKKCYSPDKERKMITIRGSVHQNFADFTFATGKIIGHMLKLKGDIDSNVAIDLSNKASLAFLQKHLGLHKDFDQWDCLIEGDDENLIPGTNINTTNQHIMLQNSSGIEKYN
In words: Lp-PLA2 human plasma assay (Thio-PAF assay). It counts as biochemical. Conditions: pooled human plasma; read-out: pIC50 values in the thio-PAF assay (converted). The source says:
The human plasma assay utilizes a thioester analog of PAF (phosphatidylcholine), where hydrolysis yields to the formation of a phospholipid containing a free thiol group. The amount of thiol is quantitated continuously by reacting with CPM (7-diethylamino-3-(4′-maleimidylphenyl)-4-methylcoumarin), a maleimide which increases in fluoresence after Michael addition of thiols. This assay may detect the activity of Lp-PLA2 in human plasma, as determined by specific inhibition by Lp-PLA2 inhibitors.
The thio-PAF assay was run as a quenched 15 μL assay. Compounds source plate was prepared by making 1:3 (by volume) serial dilution of the compounds into pure DMSO on 384-well microplate. 0.01 μL of compounds on compound source plate were transferred to 384 well Greiner 784076 (black) low-volume plates by ECHO liquid dispenser. 8 μL pooled human plasma, which was previously aliquoted and frozen, was added. Plates were centrifuged for 10 sec at 500 rpm. After 30 minutes preincubation, 2 μL of substrate solution comprising 2.5 mM 2-thio-PAF [from ethanol stock], 32 μM CPM [from a DMSO stock] and 3.2 mM NEM (N-ethylmaleimide) [made fresh daily in DMSO] in assay buffer of 50 mM HEPES, pH 7.4, 150 mM NaCl, 1 mM CHAPS was added to 384 well Greiner 784076 (black) low-volume plates by BRAVO liquid handling station. After 2 mins, reaction was quenched with 5 μL of 5% aqueous trifluoroacetic acid (TFA). Plates were covered to protect from light and incubated for 40 min at room temperature. Plates were read at ex: 380/em: 485 using-Envision microplate reader. pIC50 data, curve and QC analysis was conducted by using XLFit module in Excel.

For the molecule `CC1CCn2c(cc(OCc3ccc(F)cc3)nc2=O)N1C` (stereo not drawn) [E9, 8-((4-fluorobenzyl)oxy)-1,2-dimethyl-3,4-dihydro-1H-pyrimido[1,6-a]pyrimidin-6(2H)-one], the IC50 was at most 100 nM. In the case of `CC1CCn2c(cc(OCc3cccc(C#N)c3)nc2=O)N1C` (stereo not drawn) [E10, 3-(((1,2-dimethyl-6-oxo-2,3,4,6-tetrahydro-1H-pyrimido[1,6-a]pyrimidin-8-yl)oxy)methyl)benzonitrile], the IC50 was at most 100 nM. The figure for `CC1CCn2c(cc(OCc3cccc(F)c3)nc2=O)N1C` (stereo not drawn) [E12, 8-((3-fluorobenzyl)oxy)-1,2-dimethyl-3,4-dihydro-1H-pyrimido[1,6-a]pyrimidin-6(2H)-one] is at most 100 nM; for `C[C@@H]1CCn2c(cc(OCc3cc(F)c(F)c(F)c3)nc2=O)N1C` [E16, (R)-1,2-dimethyl-8-((3,4,5-trifluorobenzyl)oxy)-3,4-dihydro-1H-pyrimido[1,6-a]pyrimidin-6(2H)-one] it is at most 100 nM; for `C[C@@H]1CCn2c(cc(OCc3cccc(F)c3F)nc2=O)N1C` [E18, (R)-8-((2,3-difluorobenzyl)oxy)-1,2-dimethyl-3,4-dihydro-1H-pyrimido[1,6-a]pyrimidin-6(2H)-one] it is at most 100 nM. The result for `[2H]C([2H])(Oc1cc2n(c(=O)n1)CC[C@@H](C)N2C)c1cccc(F)c1F` [E19, (R)-8-((2,3-difluorophenyl)dideuteromethoxy)-1,2-dimethyl-3,4-dihydro-1H-pyrimido[1,6-a]pyrimidin-6(2H)-one] reads at most 100 nM; that for `C[C@@H]1CCn2c(cc(OCc3ccc(F)cc3)nc2=O)N1C` [E20, (R)-8-((4-fluorobenzyl)oxy)-1,2-dimethyl-3,4-dihydro-1H-pyrimido[1,6-a]pyrimidin-6(2H)-one], at most 100 nM; that for `C[C@@H]1CCn2c(cc(OCc3ccc(F)cc3)nc2=O)N1` [E27, (R)-8-((4-fluorobenzyl)oxy)-2-methyl-3,4-dihydro-1H-pyrimido[1,6-a]pyrimidin-6(2H)-one], at most 100 nM. Turning to `[2H]C([2H])(Oc1cc2n(c(=O)n1)CC[C@H](C)N2C)c1cc(F)c(F)c(F)c1` [E36, (S)-8-(dideutero(3,4,5-trifluorophenyl)methoxy)-1,2-dimethyl-3,4-dihydro-1H-pyrimido[1,6-a]pyrimidin-6(2H)-one], the IC50 is at most 100 nM. For the molecule `C[C@H]1CCn2c(cc(OCc3ccc(F)c(F)c3)nc2=O)N1` [E40, (S)-8-((3,4-difluorobenzyl)oxy)-2-methyl-3,4-dihydro-1H-pyrimido[1,6-a]pyrimidin-6(2H)-one], the IC50 was at most 100 nM. The result for `C[C@H]1CCn2c(cc(OCc3cc(F)c(F)cc3F)nc2=O)N1C` [E42, (S)-1,2-dimethyl-8-((2,4,5-trifluorobenzyl)oxy)-3,4-dihydro-1H-pyrimido[1,6-a]pyrimidin-6(2H)-one] reads at most 100 nM; that for `C[C@H]1CCn2c(cc(OCc3cc(F)c(F)c(F)c3)nc2=O)N1` [E45, (S)-2-methyl-8-((3,4,5-trifluorobenzyl)oxy)-3,4-dihydro-1H-pyrimido[1,6-a]pyrimidin-6(2H)-one], at most 10 nM; that for `[2H]C([2H])(Oc1cc2n(c(=O)n1)CC[C@H](C)N2C)c1cc(F)cc(F)c1` [E49, (S)-8-((3,5-difluorophenyl)dideuteromethoxy)-1,2-dimethyl-3,4-dihydro-1H-pyrimido[1,6-a]pyrimidin-6(2H)-one], at most 100 nM.

On to `[2H]C([2H])(Oc1cc2n(c(=O)n1)CC[C@@H](C)N2C)c1cc(F)cc(F)c1` [E50, (R)-8-((3,5-difluorophenyl)dideuteromethoxy)-1,2-dimethyl-3,4-dihydro-1H-pyrimido[1,6-a]pyrimidin-6(2H)-one], for which the IC50 was at most 100 nM. The figure for `CCN1c2cc(OCc3cc(F)c(F)cc3F)nc(=O)n2CC[C@@H]1C` [E52, (S)-1-ethyl-2-methyl-8-((2,4,5-trifluorobenzyl)oxy)-3,4-dihydro-1H-pyrimido[1,6-a]pyrimidin-6(2H)-one] is at most 100 nM; for `CCN1c2cc(OCc3cccc(F)c3F)nc(=O)n2CC[C@@H]1C` [E53, (S)-8-((2,3-difluorobenzyl)oxy)-1-ethyl-2-methyl-3,4-dihydro-1H-pyrimido[1,6-a]pyrimidin-6(2H)-one] it is at most 100 nM. The result for `[2H]C([2H])(Oc1cc2n(c(=O)n1)CCC(C)(C)N2C)c1cc(F)c(F)c(F)c1` [E55, 8-(dideutero(3,4,5-trifluorophenyl)methoxy)-1,2,2-trimethyl-3,4-dihydro-1H-pyrimido[1,6-a]pyrimidin-6(2H)-one] reads at most 100 nM; that for `C[C@H]1CCn2c(cc(OCc3cc(F)c(Oc4ccc(Cl)c(F)c4)c(F)c3)nc2=O)N1C` [E58, (S)-8-((4-(4-chloro-3-fluorophenoxy)-3,5-difluorobenzyl)oxy)-1,2-dimethyl-3,4-dihydro-1H-pyrimido[1,6-a]pyrimidin-6(2H)-one], at most 10 nM; that for `C[C@H]1CCn2c(cc(OCc3cc(F)c(Oc4cccc(Cl)c4)c(F)c3)nc2=O)N1C` [E59, (S)-8-((4-(3-chlorophenoxy)-3,5-difluorobenzyl)oxy)-1,2-dimethyl-3,4-dihydro-1H-pyrimido[1,6-a]pyrimidin-6(2H)-one], at most 100 nM. The result for `C[C@H]1CCn2c(cc(OCc3ccc(Oc4ccc(C(F)(F)F)cc4)c(C#N)c3)nc2=O)N1C` [E61, (S)-5-(((1,2-dimethyl-6-oxo-2,3,4,6-tetrahydro-1H-pyrimido[1,6-a]pyrimidin-8-yl)oxy)methyl)-2-(4-(trifluoromethyl)phenoxy)benzonitrile] reads at most 10 nM.

For `C[C@@H]1CCn2c(cc(OCc3cc(F)c(Oc4ccc(Cl)c(F)c4)c(F)c3)nc2=O)N1C` [E63, (R)-8-((4-(4-chloro-3-fluorophenoxy)-3,5-difluorobenzyl)oxy)-1,2-dimethyl-3,4-dihydro-1H-pyrimido[1,6-a]pyrimidin-6(2H)-one], the IC50 was at most 10 nM. The result for `C[C@@H]1CCn2c(cc(OCc3cc(F)c(Oc4cccc(Cl)c4)c(F)c3)nc2=O)N1C` [E64, (R)-8-((4-(3-chlorophenoxy)-3,5-difluorobenzyl)oxy)-1,2-dimethyl-3,4-dihydro-1H-pyrimido[1,6-a]pyrimidin-6(2H)-one] reads at most 10 nM. The result for `C[C@H]1CCn2c(cc(OCc3ccc(Oc4ccc(Cl)c(F)c4)c(C#N)c3)nc2=O)N1C` [E66, (S)-2-(4-chloro-3-fluorophenoxy)-5-(((1,2-dimethyl-6-oxo-2,3,4,6-tetrahydro-1H-pyrimido[1,6-a]pyrimidin-8-yl)oxy)methyl)benzonitrile] reads at most 10 nM; that for `CN1c2cc(OCc3cccc(F)c3F)nc(=O)n2CCC1(C)C` [E72, 8-((2,3-difluorobenzyl)oxy)-1,2,2-trimethyl-3,4-dihydro-1H-pyrimido[1,6-a]pyrimidin-6(2H)-one], at most 100 nM; that for `CN1c2cc(OCc3cc(F)cc(F)c3)nc(=O)n2CCC1(C)C` [E74, 8-((3,5-difluorobenzyl)oxy)-1,2,2-trimethyl-3,4-dihydro-1H-pyrimido[1,6-a]pyrimidin-6(2H)-one], at most 100 nM.

For `C[C@@H]1CCn2c(cc(OCc3cccc(C#N)c3)nc2=O)N1C` [E127, (R)-3-(((1,2-dimethyl-6-oxo-2,3,4,6-tetrahydro-1H-pyrimido[1,6-a]pyrimidin-8-yl)oxy)methyl)benzonitrile], the IC50 is at most 100 nM. In the case of `C[C@H]1CCn2c(cc(OCc3cccc(C#N)c3)nc2=O)N1C` [E128, (S)-3-(((1,2-dimethyl-6-oxo-2,3,4,6-tetrahydro-1H-pyrimido[1,6-a]pyrimidin-8-yl)oxy)methyl)benzonitrile], the IC50 was at most 100 nM.

Consider `C[C@@H]1CCn2c(cc(OCc3cccc(F)c3)nc2=O)N1C` [E130, (R)-8-((3-fluorobenzyl)oxy)-1,2-dimethyl-3,4-dihydro-1H-pyrimido[1,6-a]pyrimidin-6(2H)-one], for which the IC50 was at most 100 nM. As for `CN1c2cc(OCc3cccc(F)c3)nc(=O)n2CCC1(C)C` [E134, 8-((3-fluorobenzyl)oxy)-1,2,2-trimethyl-3,4-dihydro-1H-pyrimido[1,6-a]pyrimidin-6(2H)-one], the IC50 was at most 100 nM. The result for `CC(C)N1c2cc(OCc3cccc(F)c3F)nc(=O)n2CC[C@@H]1C` [E139, (S)-8-((2,3-difluorobenzyl)oxy)-1-isopropyl-2-methyl-3,4-dihydro-1H-pyrimido[1,6-a]pyrimidin-6(2H)-one] reads at most 100 nM.
